Literature values, collected in patent US20140134693A1, “Eliminating the Need of Acidification in Bioethanol Production” (Anitox Corporation, priority 2012, published 2014).
Where two headings read alike, the source gives them in different places.

Assays:
[1] = system: Most bacteria, with the exception of Lactobacillus casei; details: ethanol fermentation process
bacteria = details: sugarcane ethanol production
Lactobacillus [2] = details: 600 mg/L
Lactobacillus [3] = system: Lactobacillus

For `OO` [hydrogen peroxide], the concentration controlling bacteria [1] is given as 1 to 10 mM.

In the case of virginiamycin, the bacteria resistant (bacteria) is given as 48%.

For penicillin, the bacteria resistant (bacteria) is given as 97%.

In the case of `O=C(O)CCC(=O)O` [Succinic acid], the “reduction of Lactobacillus levels” value (Lactobacillus [2]) is given as 78% and the “reduction of Lactobacillus levels” value (Lactobacillus [2]; in the presence of ethanol) is given as “up to 96%”.

In the case of `NC(N)=O.OO` [Urea hydrogen peroxide], the “bactericidal activity against Lactobacillus (in words)” value (Lactobacillus [3]) is given as “excellent bactericidal activity”.

In the case of `CC1(C)S[C@@H]2[C@H](NC(=O)[C@H](N)c3ccccc3)C(=O)N2[C@H]1C(=O)O` [ampicillin], the bacteria resistant (bacteria) is listed as 97%.
